In US20110112101A1, “TREATMENT FOR OCULAR-RELATED DISORDERS” (SANOFI-AVENTIS, priority 2009, published 2011):

Tested on: laser induced plaque on the retina (model of wet AMD)
Assay: laser induced model of macular degeneration in the rat
Type: in vivo
Details: for % Inhibition of Plaque: krypton laser injury of retina
Description: Several models of wet AMD are available in the rodent and rabbit. The pre-clinical efficacy of the compound of Formula I was assessed in a laser induced model of macular degeneration in the rat. In this model, injury is induced on the retina of the rat by a focused laser beam. This injury results in vascularization and inflammation, and the subsequent formation of a plaque on the retina that is associated with loss of vision. The ability of treatments with a compound of Formula Ito inhibit the size and thickness of such plaques serves as an indicator for the potential for the treatment of wet AMD patients. A krypton laser was used to irradiate the retina of a rat eye at 75 microns for 0.1 seconds, at each of 3-4 spots. From days 1 to 14, the irradiated rats were dosed twice a day with the compound of Formula I perorally (bid PO). Doses used were 3 mg/kg, 10 mg/kg, and 30 mg/kg body weight. An additional treatment group was given the vehicle for the oral compound, also bid PO administration. A positive control was used with 0.5 mg triamcinolone delivered to the intraocular subtendon. At 14 days after such irradiation, the rat was perfused with FITC-dextran (fluorescein isothiocyanate dextran) and the eyes were removed for evaluation. Evaluation was by fundoscopy and fluorescein angiography.

Compound | % Inhibition of Plaque (3 mg/kg bid PO days 1 to 14, evaluated at 14 days) | % Inhibition of Plaque (10 mg/kg bid PO days 1 to 14, evaluated at 14 days) | % Inhibition of Plaque (30 mg/kg bid PO days 1 to 14, evaluated at 14 days) | plaque thickness (laser induced model, 30 and 10 mg/kg bid PO) | results compared with positive control triamcinolone (laser induced model, 30 and 10 mg/kg bid PO versus 0.5 mg triamcinolone) | % Inhibition of Plaque (positive control 0.5 mg delivered to the intraocular subtendon, evaluated at 14 days)
CCc1c(-c2ccc(C(C)(C)O)cc2)[nH]c2nccnc12 [compound of Formula I, 2-[4-(7-Ethyl-5H-pyrrolo[2,3-b]pyrazin-6-yl)-phenyl]-propan-2-ol] | 12% | 36% | 33% | significantly reduced plaque thickness | significantly better | 
C[C@]12C=CC(=O)C=C1CC[C@H]1[C@@H]3C[C@@H](O)[C@](O)(C(=O)CO)[C@@]3(C)C[C@H](O)[C@@]12F [triamcinolone, reference compound] |  |  |  |  |  | 26%
